Reference: US6552066B1, “Protein tyrosine kinase inhibitors for treating osteoarthritis” (priority 1995, dated 2003)
Each block holds one compound with its values, some of them ahead of it.

Assays:
[1] = test system: IL-1 induced release of 35S-labelled proteoglycans from chondrocytes; assay: Chondrocyte cell culture matrix breakdown assay (IL-1 induced 35S release); format: cell-based, calf (bovine); conditions: for inhibitory effect on IL-1 induced release of 35S-labelled proteoglycans: first experiment; for percent inhibition of IL-1 induced 35S release: repeated assay
Method: A cell culture assay was used to measure the ability of the test compounds to slow the degradation of the extracellular matrix by a metalloproteinase. This assay measured the amount ^35S released from chondrocytes grown in a media with ^35S labeled sodium sulfate. The cell culture assay was carried out as follows:
Two or three 1 to 3 week old calf joints were obtained from an abattoir. The proximal end of the shank was about 4-5′ long to facilitate immobilization in the holder. The joint was kept cool and transported on ice. The exterior of the intact joints was washed well with a suitable anti-microbial soap, rinsed clean with warm water, rinsed in betadine and then finally rinsed with 70% ethanol. Up to this point all steps were done in a manner to ensure that the joint was kept as clean as possible. All subsequent steps were performed in a sterile field (i.e., in a Edgeguard laminar flow tissue culture hood). The joint was immobilized and the synovial fluid was aspirated with a needle and syringe. The joint was then cut open to expose the articular cartilage using a #21 scalpel. Using locking hemostats, forceps and a #15 scalpel, the cartilage was excised in full thickness pieces. Care was taken not to cut too deep into the subchondral bone to prevent bleeding. The cartilage pieces were placed into a 50 mL centrifuge tube containing 25 mL of Delbecco's phosphate buffered saline (D-PBS) supplemented with 1% antibiotic solution (penicillin, streptomycin and fungizone; GIBCO/BRL). The slices from each joint were then placed into separate 50 mL centrifuge tubes. The D-PBS was decanted and replaced with 25 mL of fresh D-PBS supplemented with antibiotics and subsequently agitated gently.
The cartilage pieces were transferred to a fresh 50 mL centrifuge tube and rinsed once more with 25 mL of D-PBS minus antibiotics. An enzymatic digestion solution containing 1 mg/mL of hyaluronidase in serum-free 1:1 DMEM/Ham's F-12 (DMEM/F12) was prepared. This solution was filter sterilized with 0.22 mm Milex-GV filter and kept on ice until ready to use. The cartilage pieces were digested with approximately 5 mL of hyaluronidase solution per joint for 2×15 minutes at 37° C. in the 50 mL centrifuge tube with gentle agitation at the 15 minute mark. This procedure removed residual hyaluronic acid from the surface of the chips. The enzymatic digestion solution was then aspirated and the cartilage pieces were rinsed with 25 mL of D-PBS.
A second enzymatic digestion solution containing 2.5 mg trypsin and 2 mg collagenase P per mL serum-free DMEM/F12 was prepared. This solution was also filter sterilized with a 0.22 mm Millex-GV filter and kept on ice until ready to use. The cartilage pieces were digested with approximately 5 mL of trypsin: collagenase solution per joint for 2×15 minutes at 37° C. in the 50 mL centrifuge tube with gentle agitation at the 15 minute mark. This procedure removed the synovial fibroblasts and any adherent connective tissue from the surface of the chips. The enzymatic digestion solution was then carefully removed and saved and the cartilage pieces were rinsed with 25 mL of D-PBS.
A third enzymatic solution containing 2 mgs of collagenase P (BMB) per mL serum-free DMEM/F12 was prepared. This solution was filter sterilized with a 0.22 mm Millex-GV filter and kept on ice until ready to use. The pre-digested cartilage pieces were finally digested with approximately 20 mL of enzymatic digestion solution per joint for 5-6 hours at 37° C. in a Bellco stirring digestion flask, at which point the cartilage was fully digested away.
The enzymes in the synovial fibroblast and chondrocyte digest were neutralized by addition of an equal volume of DMEM/F12 supplemented with 5% fetal bovine serum. Fibroblasts were plated in DMEM at a cellular density of 6.6×10^3 cells per cm^2. […]

[2] = test system: IL-1-induced aggrecan degradation; assay: Aggrecan degradation in IL-1-stimulated chondrocytes, 2-B-6 antibody immunoblot; format: cell-based, bovine
Method: (§1) Primary bovine articular chondrocytes from calf adio-carpal joints were isolated and cultured as above in Example 1, up to and including the addition of the following protein kinase inhibitors: 1) Protein kinase A (PKA) inhibitors; 0.5 μM H88 (Seikagaku Corp.), 0.5 μM H89 (Seikagaku Corp.); 2) Protein kinase C (PKC) inhibitors; 0.5 μM Calphostin C (Calbiochem), 1.0 μM Chelerythrine (Calbiochem); 3) CA^2+/Calmodulin Kinase II inhibitor; 5.0 μM KN93 (Seikagaku Corp.); 4) Protein tyrosine kinase (PTK) inhibitors; 50 μM Genistein (Calbiochem), 10 μM Herbimycin A (Calbiochem). After the 24 hour IL-1α incubation, the media of each sample was measured, and collected on ice in the presence of the protease inhibitors EGTA (5 mM), Pefaloc (1 mM), pepstatin (1 μg/ml), and NEM (5 mM). Media were concentrated approximately 40 fold using a Centriprep-10 ultrafiltration device (Amicon).
(§2) Proteoglycans contained within the media were deglycosylated by incubations with chondroitinase ABC, keratinase, and keratinase II following the procedure of Sandy et al. J Biol Chem (1991) 266:8683-8685 and Sandy et al. J. Clin Invest (1992) 89:1512-1516. Samples of deglycosylated media were subjected to 4-15% gradient SDS-PAGE and transferred to nitrocellulose membranes (2 ml-worth and 6 ml-worth of media were used for 2-B-6 and BC-3 immunoblotting, respectively.) The membranes were blocked with 1% nonfat dry milk and 1% BSA, and then incubated in either the BC-3 or 2-B-6 primary monoclonal antibody for 1 hour. The 2-B-6 antibody detects chondroitin sulfate stubs on chondroitinase-treated proteoglycans (both intact and degradation products. BC-3 antibody detects “ARGSV . . . ,” the new N-terminus (“neoepitope”) resulting from cleavage of aggrecan interglobular domain at Glu^373/ALA^374 by aggrecanase. It is of note to mention that the BC-3 and 2-B-6 antibodies were of low sensitivity. Following 3 washes, membranes were incubated in either alkaline phosphatase-conjugated goat anti-mouse (for the 2-B-6 blot) or biotinylated goat anti-mouse (for the BC-3 blot); followed by alkaline phosphatase-conjugated streptavidin/biotin complex). After washing 3 times, immunoreactive proteins were detected using NBT/BCIP (Sigma) colorimetric substrate.
The 2-B-6 antibody detected intact aggrecan (the uppermost band) and several aggrecan degradation products, along with decorin and biglycan (50K doublet), in the IL-1-treated media samples. […] The bands in the IL-1 sample that are seen at 230K, 200K, 130K and 100K have been previously identified by sequence analysis to result from IL-1-induced “aggrecanase” cleavage.
(§3) A repeat of the Western immunoblotting experiment using 2-B-6 antibodies was performed. Furthermore, additional inhibitors from four enzyme families were examined: 1) Protein tyrosine kinase (PTK) inhibitors; 1 μM Tryphostin AG 1296 (Calbiochem), 50 μM Tyrphostin A25 (AG 82) (Calbiochem), 50 μM Tyrphostin AG 126 (Calbiochem), 50 μM Tyrphostin B56 (AG 556) (Calbiochem), 20 μM DAPH (Calbiochem); 2) Guanylate cyclase inhibitor; 10 μM LY-83583 (Calbiochem); 3) Casein kinase I inhibitor; 20 μM CKI-7 (Seikagaku Corp.); and 4) Protein kinase G (PKG) and PKA inhibitor; 5.0 μM H89.

[3] = test system: prostromelysin protein; assay: Western immunoblot of IL-1-induced prostromelysin protein in primary bovine chondrocytes; format: cell-based; conditions: for effect on IL-1α-induced prostromelysin protein levels: repeat experiment; for effect on IL-1-induced prostromelysin levels: first experiment
Method: Isolation and culturing of primary bovine articular chondrocytes, as well as addition of inhibitors were performed as indicated above in Example 4. The following protein kinase inhibitors were tested: 1) Protein kinase A (PKA) inhibitors; 0.5 μM H88 (Seikagaku Corp.), 0.5 μM H89 (Seikagaku Corp.), 2) Protein kinase C (PKC) inhibitors; 0.5 μM Calphostin C (Calbiochem), 1.0 μM Chelerythrine (Calbiochem); 3) CA^2+/Calmodulin Kinase II inhibitor; 5.0 μM KN93 (Seikagaku Corp.); 4) Protein tyrosine kinase (PTK) inhibitors; 50 μM Genistein (Calbiochem), 10 μM Herbimycin A (Calbiochem).
After the 24 hour IL-1α incubation, the media of each sample was measured and collected on ice in the presence of the protease inhibitors EGTA (5 mM), Pefabloc (1 mM), pepstatin (1 μg/ml), and NEM (5 mM). Media were concentrated approximately 40 fold using a Centriprep-10 ultrafiltration device (Amicon). Concentrated samples were normalized to equivalent starting concentrations (cell number/culture volume), were reduced in the presence of SDS Laemmli sample buffer and electrophoresed in a precast 12% polyacrylamide gel (BioRad). Protein samples were then electroblotted to nitrocellulose and immunodetected using a primary antibody that recognizes both prostromelysin and stromelysin. Immunoreactive bands were visualized with the ABC detection (Pierce) and an NBT/BCIP color reagent (Sigma).
as §3, with “antistromelysin” for “2-B-6”, “inhibitors:” for “inhibitors;”, “Tyrphostin” for “Tryphostin”, “126” for “126 (Calbiochem), 50 μM Tyrphostin B56 (AG 556) (Calbiochem), 20 μM DAPH”

[4] = test system: primary bovine articular chondrocytes; assay: In vitro MTT cytotoxicity assay; format: cell-based; conditions: 1 μM; 20 hours incubation + 4 hours MTT
Text: The evaluation of cytotoxicity of compounds by in vitro methods allows one to establish criteria which allow rank ordering among compounds. These methods assess cell permeability, release of cytosolic enzymes, and oxidative potential of cells. The use of tetrazolium dyes to assess cytotoxicity has been established in the area of oncology, where such assays were developed to assess the cytotoxic potential of various chemotherapeutic agents. We have adapted the use of the MTT (3-(4,5-dimethylthiazol-2-yl)-2,5-diphenyl tetrazolium bromide) in an assay using primary bovine articular chondrocytes. The procedure for this assay is given below.
Chondrocytes are isolated from bovine calf radio-carpal joints as described in Example 1. Cells are plated in two 96-well plates at 4×10^4 cells per well, in DMEM/F12 media supplemented with 10% fetal bovine serum. The cultures are refed on days 4, 7, 11, 14, 18, 21 and 24. On day 27, the cells are rinsed with PBS, and incubated for 20 hours with 0.2 ml/well of serum-free DMEM/F12 plus 0.1% DMSO, and the test compounds. Genistein (50 μM), Herbimycin (10 μM) and Staurosporine (1 μM) were each used as test compounds. […] The 96-well plate is then read in a microplate reader at 560 nm, with subtraction of absorbance at 750 nm to account for cell debris.

[5] = test system: aggrecanase cleavage of aggrecan (230K fragment); assay: Aggrecanase neoepitope in IL-1-stimulated chondrocytes, BC-3 antibody immunoblot; format: cell-based, bovine
Method: as §1, §2

[6] = target: protein kinase C alpha (Homo sapiens, UniProt P17252); conditions: at 100 μM; cited from earlier work
[7] = test system: Ca^2+-calmodulin dependent protein kinase II; conditions: cited from earlier work
[8] = target: protein kinase C gamma (Homo sapiens, UniProt P05129); conditions: at 100 μM; cited from earlier work
[9] = target: protein kinase C beta (Homo sapiens, UniProt P05771); conditions: at 100 μm; cited from earlier work
protein kinase C beta, sequence (P05771 whole entry): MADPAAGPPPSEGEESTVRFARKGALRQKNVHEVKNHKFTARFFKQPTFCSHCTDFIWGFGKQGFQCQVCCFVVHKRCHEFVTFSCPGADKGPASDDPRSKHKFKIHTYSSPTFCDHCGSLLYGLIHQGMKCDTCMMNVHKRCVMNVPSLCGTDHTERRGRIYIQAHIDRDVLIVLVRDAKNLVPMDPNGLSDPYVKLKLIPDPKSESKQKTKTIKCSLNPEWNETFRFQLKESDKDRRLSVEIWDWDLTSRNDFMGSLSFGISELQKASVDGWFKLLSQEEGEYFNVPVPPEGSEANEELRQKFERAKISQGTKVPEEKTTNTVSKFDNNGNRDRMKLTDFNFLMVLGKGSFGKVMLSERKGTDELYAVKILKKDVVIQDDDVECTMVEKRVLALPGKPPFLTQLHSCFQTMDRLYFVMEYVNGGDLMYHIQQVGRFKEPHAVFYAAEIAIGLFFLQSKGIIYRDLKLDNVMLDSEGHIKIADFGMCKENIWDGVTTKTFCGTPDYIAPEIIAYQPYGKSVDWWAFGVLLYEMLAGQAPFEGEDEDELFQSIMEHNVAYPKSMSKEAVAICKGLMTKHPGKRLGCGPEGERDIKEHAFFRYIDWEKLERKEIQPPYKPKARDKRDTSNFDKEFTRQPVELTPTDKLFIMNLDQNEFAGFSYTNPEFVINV

[10] = test system: bovine cartilage explant; conditions: cited from earlier work

Compound: COc1ccc2c(c[n+](C)c3c4cc5c(cc4ccc23)OCO5)c1OC [Chelerythrine]
inhibitory effect on IL-1 induced release of 35S-labelled proteoglycans ([1]; 1 μM): no effect
band pattern (ratio of intact aggrecan to 230K fragment), 2-B-6 ([2]; 1.0 μM): pattern similar to IL-1 alone

Compound: CKI-7
percent inhibition of IL-1 induced 35S release ([1]; 20 μM): no inhibition
effect on IL-1α-induced prostromelysin protein levels ([3]; 20 μM): no effect

Compound: CN[C@@H]1C[C@H]2O[C@@](C)([C@@H]1OC)n1c3ccccc3c3c4c(c5c6ccccc6n2c5c31)C(=O)NC4 [Staurosporine]
cytotoxicity, reduction of MTT dye [4]: reduction of MTT consistent with cytotoxicity

Compound: Calphostin C
inhibitory effect on IL-1 induced release of 35S-labelled proteoglycans ([1]; 0.5 μM): no effect
effect on IL-1-induced prostromelysin levels ([3]; 0.5 μM): no effect
BC-3 immunoreactive band at approximately 230K (aggrecanase-mediated fragment) ([5]; 0.5 μM): detected
band pattern (ratio of intact aggrecan to 230K fragment), 2-B-6 ([2]; 0.5 μM): pattern similar to IL-1 alone

BC-3 immunoreactive band at approximately 230K (aggrecanase-mediated fragment) ([5]; 5.0 μM): absence
Compound: COc1ccc(S(=O)(=O)N(CCO)c2ccccc2CN(C)C/C=C/c2ccc(Cl)cc2)cc1 [KN-93]
inhibitory effect on IL-1 induced release of 35S-labelled proteoglycans ([1]; 5 μM): no effect
effect on IL-1-induced prostromelysin levels ([3]; 5.0 μM): no effect
band pattern (ratio of intact aggrecan to 230K fragment), 2-B-6 ([2]; 5.0 μM): pattern similar to IL-1 alone

Compound: O=C1C(Nc2ccccc2)=CC(=O)c2ncccc21 [LY-83583]
effect on IL-1α-induced prostromelysin protein levels ([3]; 10 μM): no effect

Compound: NC1=N/C(=C2/CCNC(=O)c3[nH]ccc32)C(=O)N1 [debromohymenialdisine]
inhibition of protein kinase C alpha [6]: 97%
inhibition of Ca2+-calmodulin dependent protein kinase II [7]: 94%
inhibition of protein kinase C gamma [8]: 108%
inhibition of protein kinase C beta [9]: 95%

Compound: NC1=NC(=O)/C(=C2\CCNC(=O)c3[nH]c(Br)cc32)N1 [Z-hymenialdisine]
inhibition of cartilage degradation in the bovine cartilage explant assay [10]: inhibit cartilage degradation

BC-3 immunoreactive band at approximately 230K (aggrecanase-mediated fragment) ([5]; 0.5 μM): detected
Compound: O=S(=O)(NCCNC/C=C/c1ccc(Br)cc1)c1cccc2cnccc12 [H89]
inhibitory effect on IL-1 induced release of 35S-labelled proteoglycans ([1]; 0.5 μM): no effect
percent inhibition of IL-1 induced 35S release ([1]; 0.5 μM): Little or no inhibition
effect on IL-1-induced prostromelysin levels ([3]; 0.5 μM): no effect
band pattern (ratio of intact aggrecan to 230K fragment), 2-B-6 ([2]; 0.5 μM): pattern similar to IL-1 alone

Compound: COc1cc2ncc(-c3ccccc3)nc2cc1OC [Tyrphostin AG 1296]
percent inhibition of IL-1 induced 35S release ([1]; 1 μM): no inhibition
effect on IL-1α-induced prostromelysin protein levels ([3]; 1 μM): no effect
inhibition of IL-1-induced aggrecan degradation, 2-B-6 ([2]; 1 μM, repeat experiment): no inhibitory effect
